The IC50 is the concentration at which inhibition is half-maximal. The EC50 is the concentration at which the effect is half-maximal.

The results in this text go back to US11958842B2, “Substituted phenazines and methods of treating cancer and bacterial diseases” (Adjutec Pharma AS, priority 2016, dated 2024).

Each structure is given as a SMILES string. Where two headings read alike, the source gives them in different places.

Data set [1] has as its system Molm13 cells. The experiment in a line: Anti-AML activity, WST-1 viability (Example 72). It counts as cell-based. Conditions: Homo sapiens. Here is the method: Dry powder of analogs were dissolved in DMSO. IPC-18 rat AML cells (Lacaze, N. et al. Leuk. Res. 1983, 7, 145.) were cultured in DMEM medium (Sigma-Aldrich, St. Louis, Mo., USA) supplemented with 10% horse serum (Invitrogen, Carlsbad, Calif., USA), and antibiotics (50 U/mL of penicillin and 0.05 mg/mL streptomycin). Molm13 (Matsuo, Y. et al. Leukemia 1997, 11, 1469.) cells were cultured in RPMI supplemented with antibiotics (50 U/mL of penicillin and 0.05 mg/mL streptomycin) and 10% fetal bovine serum (FBS, Invitrogen, Carlsbad, Calif.) and kept in exponential growth before the experiments. Dilution series of iodinin analogs were added to medium and cell suspension added to reach a final cell concentration of 150 000 cells/ml in 0.1 mL in a 96 well tissue culture plate. […] The cells were incubated with the iodinin analogs for 22 h before WST-1 was added according to the manufacturers protocol, and the cells incubated further in 2 h. Mitochondrial conversion of WST-1 to its colored metabolite was measured by a plate reader at 450 nm, with 620 nm as the reference wavelength. The cells were next fixed by adding 4% buffered formaldehyde (PBS, pH 7.4, supplemented with 0.01 mg/mL Hoechst 33342 for nuclear visualization) to the cell suspension at 1:1 (v/v) ratio (final concentration of formaldehyde:[…]). The cells' nuclear and surface morphology were examined microscopically and results compared with the WST-1 viability assay. The results given in Table I are based on WST-1 data.
(In general: Formazan colour is commonly taken as a measure of viable cells.)

Data set [2] deals with human acute myeloid leukemia cell line MOLM-13. The experiment in a line: Cytotoxicity, WST-1 and nuclear morphology (Example 73). It counts as cell-based. The method, then:
(§1) All cell culturing media and serum were from Sigma-Aldrich (St. Louis, Mo., USA). Product Nos. are given in parentheses. The human acute myeloid leukemia cell line MOLM-13 was cultured in RPMI medium (R5886) enriched with […] (F7524) and 0.2 mM L-glutamine (G7513). The normal rat kidney epithelial (NRK) and the rat cardiomyoblast (H9c2) cells were cultured in DMEM medium (D6429) enriched with 10% fetal bovine serum (F7524). All cell lines were additionally supplemented with 100 IU/mL penicillin and […] (P0781). The cells were cultured in a humidified atmosphere either under 2% or 20% O2 at 37° C.
(§2) All analogues were dissolved in DMSO (D5879, Sigma-Aldrich) at concentrations between 2.5 and 20 mM before testing. For cytotoxic testing, the MOLM-13 cells were seeded as 20,000 cells/well, while NRK and H9c2 cells were seeded as 5,000 cells/well in 96-well Microplates (#167008, Thermo Scientific™ Nunc™ MicroWell™) with 100 μL medium/well. The cells were exposed to various concentrations of iodinin or its analogues for 24 hrs before the cell proliferation reagent WST-1 was used to assess the viability, in accordance with the manufacturer's instructions (11644807001, Roche Diagnostics, Sigma-Aldrich). The cells were next fixed in 2% buffered formaldehyde (pH 7.4) with the DNA-specific dye Hoechst 33342 (Polysciences Inc.) and assessed for cell death by UV-microscopy based on nuclear morphology. The highest concentration of analogue corresponded to 1% of DMSO, which alone gave less than 7% cell death as judged by nuclear morphology.
(§3) EC50 values were determined by analyses of WST-1 signal results as well as microscopic evaluation of cell death by four-parameter regression analyses using the SigmaPlot software (Systat Software inc. San Jose, Calif.):
(§4) [formula] where Y is the response (WST-1 signal or percent apoptosis), min and max are minimum and maximum response, X is concentration of analogue, EC50 equals the point of inflection, i.e. the point that gives half of maximum response, and h is the Hill's slope of the curve. The two methods gave consistent response curves for each analogue. In the case of Tirapazamine, where its colour interfered with the WST-1 signal, only microscopic evaluation of Hoechst stained cells was used in order to calculate its EC50 values.

Data set [3] in a line: Parallel artificial membrane permeability assay (PAMPA). To be noted: for LogPeff: PAMPA. The method, then:
The Corning Gentest™ pre-Coated parallel artificial membrane permeability assay PAMPA Plate System was from Cording Discovery Labware (Bedford, USA). The compounds were tested in room temperature at 50 μM using PBS as buffer. A total of 300 μl of the compound solution was added to each well of the donor plate, and 200 μl of PBS was added to the receiver filter plate. After incubation for five hours, 50 μl of the donor or acceptor well were injected into a reversed phase HPLC column (Kromasil 100-5 C18 150-4.6 mm, Akzo Nobel, Sweden) connected to a Merck-Hitachi LaChrome HPLC-system (VWR, WestChester, USA) with a L-7455 diode array detector. Mobile phase A was 0.05% aqueous TFA, and mobile phase B was acetonitrile. The flow rate was 1.6 ml/min and compounds eluted between 1 and 4.5 minutes was eluted during a 6.5 min gradient from 90:10% mobile phase A:B to 0:100% mobile phase A:B. The ratio of the compound concentrations in the donor and acceptor compartment was calculated after integration of the peaks at 285 nm. Peff was calculated as described in [Bennion B J, Be N A, McNerney M W, Lao V, Carlson E M, Valdez C A, et al. Predicting a Drug's Membrane Permeability: A Computational Model Validated With in Vitro Permeability Assay Data. The journal of physical chemistry B. 2017; 121(20):5228-37.]. Membrane permeability were classified by the range defined by Bennion et al., allowing for us to divide the compounds into four groups, compounds with high permeability (LogPeff>−5.33), intermediate permeability (LogPeff>−5.66 and <−5.33), low permeability (LogPeff>−6.14 and <−5.66) impermeable (LogPeff<−6.14).

Data set [4] concerns rat cardiomyoblast (H9c2) cells. The experiment in a line: Cytotoxicity, WST-1 and nuclear morphology (Example 73). It counts as cell-based. Conditions: H9c2, 19% O2, 24 hours of incubation, read-out: EC50 (μM) H9c2 19% O2. The method, then: as §1, §2, §3, §4
For data set [5], the system named is normal rat kidney epithelial (NRK) cells. Described as above. It counts as cell-based. To be noted: Rattus norvegicus. The method, then:
as §1, §2, §3, §4

Setting [6] is: Molm 13 cells, 2% O2, 24 h of incubation, WST-1, read-out: Molm 13 IC50 2% O2.
The mark [7] stands for this setting: Molm 13 cells, 20% O2, 24 h of incubation, WST-1, read-out: Molm 13 IC50 20% O2.
The mark [8] stands for this setting: Homo sapiens, MOLM-13, 2% O2, 24 hours of incubation, read-out: EC50 (μM) MOLM-13 2% O2.
Where [9] appears, read: Homo sapiens, MOLM-13, 19% O2, 24 hours of incubation, read-out: EC50 (μM) MOLM-13 19% O2.
Where [10] appears, read: 50 μM in PBS, room temperature, five hours.
Setting [11] is: 24 h, read-out: EC50 (μM) NRK 2% O2, NRK, 2% O2, 24 hours of incubation.
The mark [12] stands for this setting: 24 h, read-out: EC50 (μM) NRK 19% O2, NRK, 19% O2, 24 hours of incubation.
Setting [13] is: MOLM-13, 2% O2, 24 hours of incubation, read-out: EC50 (μM) MOLM-13 2% O2.
Setting [14] is: MOLM-13, 19% O2, 24 hours of incubation, read-out: EC50 (μM) MOLM-13 19% O2.
[15] abbreviates: MOLM-13, 24 h, read-out: Molm 13 IC50 20% O2.
Where [16] appears, read: 2% O2, 24 hours of incubation, read-out: EC50 (μM) NRK 2% O2.
Where [17] appears, read: 19% O2, 24 hours of incubation, read-out: EC50 (μM) NRK 19% O2.

Regarding `COc1cccc2nc3c(OC)cccc3nc12` [Example 1a, 1,6-dimethoxyphenazine], the IC50 in data set [1] (setting [6]) and in data set [1] (setting [7]) was above 10 µM throughout. Moreover, the EC50 was 84 ± 6 µM in data set [2] (setting [8]) and 72 ± 14 µM in data set [2] (setting [9]).
In the case of `Oc1cccc2nc3c(O)cccc3nc12` [Example 1b, 1,6-dihydroxyphenazine], the EC50 in data set [2] (setting [8]) is 110 to 140 µM; in data set [2] (setting [9]), 100 to 120 µM. The Permeability entry in data set [3] (PAMPA class by ranges of Bennion et al.) was “Intermediate/high”. In addition, the LogPeff in data set [3] (setting [10]) was −5.42.
For `[O-][n+]1c2ccccc2[n+]([O-])c2c(O)cccc21` [Example 4a, 1-hydroxyphenazine 5,10-dioxide], the IC50 in data set [1] (setting [7]) is 4.5 µM.
For the molecule `CC(=O)Oc1cccc2c1[n+]([O-])c1cccc(O)c1[n+]2[O-]` [Example 5d, 1-Acetoxy-6-hydroxyphenazine 5,10-dioxide], the IC50 in data set [1] (setting [6]) was 5.61 µM; in data set [1] (setting [7]), 5.62 µM.
As for `O=C(Oc1cccc2c1[n+]([O-])c1cccc(O)c1[n+]2[O-])N1CCCC1` [Example 8j, 1-hydroxy-6-((pyrrolidine-1-carbonyl)oxy)phenazine 5,10-dioxide], the EC50 in data set [4] was found to be 12 ± 0.7 µM; in data set [5] (setting [11]), 15 ± 1 µM; in data set [5] (setting [12]) it was 9.6 ± 0.38 µM; in data set [2] (setting [13]) it was 0.79 ± 0.09 µM; in data set [2] (setting [14]) it was 0.86 ± 0.05 µM.
Take `CN(C)C(=O)Oc1cccc2c1[n+]([O-])c1ccccc1[n+]2[O-]` [Example 8k, 1-((dimethylcarbamoyl)oxy)phenazine 5,10-dioxide]: the IC50 in data set [1] (setting [15]) was determined as 0.32 µM. In addition, the EC50 in data set [4] amounted to 16 ± 2.6 µM; in data set [5] (setting [11]), 25 ± 0.6 µM; in data set [5] (setting [12]) it was 19 ± 1.3 µM; in data set [2] (setting [13]), 2.1 ± 0.16 µM; in data set [2] (setting [14]) it was 1.3 ± 0.15 µM.
On to `O=C(Oc1cccc2c1[n+]([O-])c1cccc(OC(=O)N3CCCC3)c1[n+]2[O-])N1CCCC1` [Example 16a, 1,6-bis((pyrrolidine-1-carbonyl)oxy)phenazine 5,10-dioxide], for which the IC50 in data set [1] (setting [15]) was 0.95 µM.
As to `CCOC(=O)COc1cccc2c1[n+]([O-])c1cccc(OCC(=O)OCC)c1[n+]2[O-]` [Example 16c, 1,6-bis(2-ethoxy-2-oxoethoxy)phenazine 5,10-dioxide], the IC50 amounted to 3.98 µM in data set [1] (setting [6]) and 4.11 µM in data set [1] (setting [7]). The EC50 in data set [4] (Rattus norvegicus) is above 20 µM; in data set [5] (setting [16]), above 20 µM; in data set [5] (setting [17]) it was above 20 µM; in data set [2] (setting [8]), 0.79 ± 0.06 µM; in data set [2] (setting [9]) it was 2 ± 0.47 µM.
On to `CCOC(=O)Oc1cccc2c1[n+]([O-])c1cccc(OC(=O)OCC)c1[n+]2[O-]` [Example 16e, 1,6-bis((ethoxycarbonyl)oxy)phenazine 5,10-dioxide], for which the IC50 turned out to be 3.5 µM in data set [1] (setting [6]) and 2.23 µM in data set [1] (setting [7]). Besides, the EC50 was above 25 µM in data set [4] (Rattus norvegicus); above 25 µM in data set [5] (setting [16]); above 25 µM in data set [5] (setting [17]); 4 ± 0.33 µM in data set [2] (setting [8]); 6.1 ± 0.05 µM in data set [2] (setting [9]).
Regarding `[O-][n+]1c2ccccc2[n+]([O-])c2c(O)cccc21` [Example 17, 1-hydroxyphenazine 5,10-dioxide], the EC50 in data set [4] (Rattus norvegicus) was above 100 µM; in data set [5] (setting [16]), above 100 µM; in data set [5] (setting [17]) it was 79 ± 4.2 µM; in data set [2] (setting [8]) it was 12 ± 0.04 µM; in data set [2] (setting [9]), 11 ± 1.8 µM.
Consider `CC(C)(C)OC(=O)COc1cccc2c1[n+]([O-])c1ccccc1[n+]2O` [Example 19, 1-(2-(tert-butoxy)-2-oxoethoxy)phenazine 5,10-dioxide], for which the EC50 was 20 ± 2.1 µM in data set [4] (Rattus norvegicus); 25 ± 1.9 µM in data set [5] (setting [16]); 26 ± 0.7 µM in data set [5] (setting [17]); 1.9 ± 0.11 µM in data set [2] (setting [8]); 2.2 ± 0.09 µM in data set [2] (setting [9]).
Consider `CCN(CC)C(=O)COc1cccc2c1[n+]([O-])c1ccccc1[n+]2[O-]` [Example 21, 1-(2-(diethylamino)-2-oxoethoxy)phenazine 5,10-dioxide], for which the EC50 in data set [4] (Rattus norvegicus) came out at 23 ± 0.1 µM; in data set [5] (setting [16]), 16 ± 1 µM; in data set [5] (setting [17]), 13 ± 0.01 µM; in data set [2] (setting [8]), 1.4 ± 0.15 µM; in data set [2] (setting [9]), 1.2 ± 0.08 µM.
Regarding `O=C(Oc1cccc2c1[n+]([O-])c1ccccc1[n+]2[O-])N1CCCC1` [Example 24, 1-((pyrrolidine-1-carbonyl)oxy)phenazine 5,10-dioxide], the EC50 in data set [4] amounted to 13 ± 0.5 µM; in data set [5] (setting [11]), 21 ± 2.4 µM; in data set [5] (setting [12]) it was 18 ± 0.6 µM; in data set [2] (setting [13]), 1.2 ± 0.15 µM; in data set [2] (setting [14]), 1.5 ± 0.18 µM.
As for `Cc1cc2c(cc1C)[n+]([O-])c1c(O)cccc1[n+]2[O-]` [Example 48, 1-hydroxy-7,8-dimethylphenazine 5,10-dioxide], the EC50 in data set [4] (Rattus norvegicus) was above 50 µM; in data set [5] (setting [16]), above 50 µM; in data set [5] (setting [17]) it was above 50 µM; in data set [2] (setting [8]) it was 2.3 ± 0.1 µM; in data set [2] (setting [9]), 2.8 ± 0.25 µM.
`[O-][n+]1c2cc3ccccc3cc2[n+]([O-])c2c(O)cccc21` [Example 70, 1-hydroxybenzo[b]phenazine 5,12-dioxide]: the LogPeff in data set [3] (setting [10]) is −8.04.
As for `Nc1n[n+]([O-])c2ccccc2[n+]1[O-]` [Tirapazamine, reference compound], the LogPeff in data set [3] (5 h, 50 μM) is on record as −5.79.
